Measured values taken from publication PMC8348110, “A Novel Peptide Derived from the Transmembrane Domain of Romo1 Is a Promising Candidate for Sepsis Treatment and Multidrug-Resistant Bacteria” (International Journal of Molecular Sciences, 2021).
≈ marks a conversion by molar mass, not a printed value. Residues, ends and D or L forms follow the SMILES beside them.

Legend:
human erythrocytes = experiment: Hemolysis assay; format: cell-based; conditions: 2% erythrocytes in PBS, 1 h 37 °C, absorbance 550 nm; up to / at 256 µg/mL
Experimental: For the hemolytic assay, mouse and human whole blood was diluted with PBS (pH 7.4) and centrifuged for 10 min at 500× g. After removing the supernatant and rinsing the pellet three times with PBS, we resuspended the erythrocytes in PBS at 2% volume. The blood solution was added to the solution of peptides with two-fold serial dilution on a 96-well plate. After incubation for an hour at 37 °C, the plate was centrifuged at 2500× g for 10 min, and the absorbance of the supernatant was measured at 550 nm. The PBS-treated sample was the negative control, and the 0.1% Triton X-100–treated sample was the positive control. To measure white blood cell toxicity, mouse and human PBMCs were freshly isolated as previously described, and 70% ethanol (positive control) or AMPR-22 was administered using two-fold diluted concentrations (0 to 256 μg/mL) for 30 min. To measure cell death, a LIVE/DEAD® fixable green dead cell stain kit (Thermo Fisher Scientific, Waltham, MS, USA) was used following the manufacturer′s instructions, and flow cytometry was performed using a FACS Canto II (BD Biosciences, CA, USA). The toxicity of AMPR-22 was compared with negative (PBS-treated) and positive controls, and the data were analyzed using FlowJo software (Tree Star, OR, USA).

[1] = test system: Pseudomonas aeruginosa ATCC 27853; format: cell-based; conditions: ATCC 27853, 1 h
Experimental: (§1) The minimum bactericidal concentration (MBC) was determined as previously described with minor modifications. Briefly, bacteria were cultured in the mid-log phase and diluted to 5 × 10^5 colony-forming unit (CFU)/mL in 10 mM sodium phosphate buffer (pH 7.4) with a 1% volume of TS broth. They were incubated for 1 h with various peptides which were two-fold diluted serially from 64 μg/mL to 0 μg/mL concentrations in a 96-well plate. The samples were inoculated TS agar plate and incubated overnight at 37 °C. The value of MBC was determined at the lowest concentrations at which no colonies were identified.
(§2) We used the CFU counting method to measure antibacterial activity, with all bacteria cultured to the mid-log phase in an appropriate broth medium. Bacterial CFUs were counted after overnight culture at 37 °C on TS or LB agar plates. The MBC value and antibacterial activity in blood components were determined as previously described. Mouse and human whole blood were collected and diluted with PBS (pH 7.4) to measure the ex vivo antibacterial activity of AMPR-22. For that test, AMPR-22 (10 μg) was added to each whole blood solution and incubated at 37 °C with shaking at 200 rpm. At each time point, it was incubated with bacteria (1 × 10^3 CFU) for 30 min. Each sample was inoculated on an LB agar plate, and CFU counting was performed. To measure the in vivo activity of AMPR-22, 1 × 10^8 CFU of bacteria were injected into BALB/c mice, and an hour later, 10 mg/kg of the test peptides were injected. Blood samples were collected by tail cut, serially diluted with PBS (pH 7.4), and inoculated on LB-agar plates, followed by CFU counting. To estimate the functional half-life of AMPR-22, 40 mg/kg of each tested peptide were injected into mice. Whole blood sampling was performed by cardiac puncture, and the plasma was isolated by centrifugation (2000× g, 15 min). The isolated plasma was incubated with bacteria (1 × 10^3 CFU) for an hour, and then the CFU counting method was performed.

[2] = test system: Staphylococcus aureus ATCC 29213; format: cell-based; conditions: ATCC 29213, 1 h, pH 7.4
Experimental: as §1, §2

[3] = test system: Methicillin-resistant S. aureus (MRSA) ATCC 33591; format: cell-based, Staphylococcus aureus; conditions: ATCC 33591, 1 h
Experimental: as §1, §2

[4] = test system: Carbapenem-resistant P. aeruginosa (CRPA), clinical isolate; format: cell-based, Pseudomonas aeruginosa; conditions: 1 h
Source text: Acinetobacter baumannii (ATCC 19606), B. subtilis (ATCC 6633), E. aerogenes (ATCC 13048), E. coli (ATCC 25922), E. faecalis (ATCC 19433), E. faecium (ATCC 19434), K. pneumoniae (ATCC 13883), P. aeruginosa (ATCC 27853), S. aureus (ATCC 29213), S. sindenensis (ATCC 23963), and MRSA (ATCC 33591) were purchased from the American Type Culture Collection (ATCC; Gaithersburg, MD, USA). Streptococcus pneumoniae (NCCP 14585), vancomycin-resistant E. faecium (NCCP 11522), and vancomycin-resistant S. aureus (NCCP 15872) were purchased from the National Culture Collection for Pathogens (NCCP; Cheongju, Korea). The isolation and use of carbapenem-resistant bacterial strains from a patient were approved (2015AN0129) by the Institutional Review Board (IRB) of Korea University Hospital. CRPA, CRKP, and CRAB were clinically isolated in Korea University Hospital (Seoul, Korea). CRPA was confirmed to be resistant to piperacillin, piperacillin-tazobactam, ceftazidime, imipenem, meropenem, gentamicin, amikacin, and ciprofloxacin. CRAB was confirmed to be resistant to piperacillin, piperacillin-tazobactam, cefepime, ceftazidime, imipenem, meropenem, gentamicin, amikacin, and ciprofloxacin. CRKP was confirmed to be resistant to piperacillin-tazobactam, cefepime, ceftazidime, imipenem, gentamicin, and ciprofloxacin. All strains were stored at –80 °C in 50% glycerol and 50% Luria-Bertani (LB) or tryptic soy (TS) broth, grown on LB or TS plates, and aerated at 37 °C.
as §1, §2

## CC[C@H](C)[C@H](NC(=O)CNC(=O)[C@H](CCSC)NC(=O)CNC(=O)[C@@H](NC(=O)[C@H](C)NC(=O)[C@H](CCSC)NC(=O)[C@H](Cc1ccccc1)NC(=O)[C@@H](NC(=O)CNC(=O)[C@H](Cc1ccccc1)NC(=O)[C@@H](NC(=O)CNC(=O)CNC(=O)[C@H](CO)NC(=O)[C@H](CCC(N)=O)NC(=O)[C@H](CCSC)NC(=O)[C@H](CCSC)NC(=O)[C@@H](NC(=O)[C@@H](N)CCCCN)[C@@H](C)O)[C@@H](C)O)[C@@H](C)O)[C@@H](C)CC)C(=O)N[C@@H](CCCNC(=N)N)C(=O)O [AMPR-11] (H-KTMMQSGGTFGTFMAIGMGIR-OH)
Human erythrocytes
  Hemolytic activity against human erythrocytes: low hemolytic activity

## CC[C@H](C)[C@H](NC(=O)CNC(=O)[C@H](CCSC)NC(=O)CNC(=O)[C@@H](NC(=O)[C@H](C)NC(=O)[C@H](CCSC)NC(=O)[C@H](Cc1ccccc1)NC(=O)[C@@H](NC(=O)[C@H](Cc1ccccc1)NC(=O)[C@H](CCCCN)NC(=O)CNC(=O)CNC(=O)[C@H](CCCCN)NC(=O)[C@H](CCCCN)NC(=O)[C@H](CCSC)NC(=O)[C@H](CCSC)NC(=O)[C@H](CCCCN)NC(=O)[C@@H](N)CCCCN)[C@@H](C)O)[C@@H](C)CC)C(=O)N[C@@H](CCCNC(=N)N)C(=O)O [d68G] (H-KKMMKKGGKFTFMAIGMGIR-OH)
[1]
  MBC Value, P. aeruginosa: 4 µg/mL (≈ 1.77 µM)
[2]
  MBC Value, S. aureus: 4 µg/mL (≈ 1.77 µM)
[3]
  MBC Value, MRSA: 4 µg/mL (≈ 1.77 µM)
[4]
  MBC Value, CRPA: 8 µg/mL (≈ 3.54 µM)

## CC[C@H](C)[C@H](NC(=O)CNC(=O)[C@H](CCSC)NC(=O)CNC(=O)[C@@H](NC(=O)[C@H](C)NC(=O)[C@H](CCSC)NC(=O)[C@H](Cc1ccccc1)NC(=O)CNC(=O)[C@H](Cc1ccccc1)NC(=O)[C@H](CCCCN)NC(=O)CNC(=O)CNC(=O)[C@H](CCCCN)NC(=O)[C@H](CCCCN)NC(=O)[C@H](CCSC)NC(=O)[C@H](CCSC)NC(=O)[C@H](CCCCN)NC(=O)[C@@H](N)CCCCN)[C@@H](C)CC)C(=O)N[C@@H](CCCNC(=N)N)C(=O)O [d69T] (H-KKMMKKGGKFGFMAIGMGIR-OH)
[1]
  MBC Value, P. aeruginosa: 4 µg/mL (≈ 1.8 µM)
[2]
  MBC Value, S. aureus: 2 µg/mL (≈ 0.902 µM)
[3]
  MBC Value, MRSA: 1 µg/mL (≈ 0.451 µM)
[4]
  MBC Value, CRPA: 4 µg/mL (≈ 1.8 µM)

## CC[C@H](C)[C@H](NC(=O)CNC(=O)[C@H](CCSC)NC(=O)CNC(=O)[C@@H](NC(=O)[C@H](C)NC(=O)[C@H](Cc1ccccc1)NC(=O)[C@@H](NC(=O)CNC(=O)[C@H](Cc1ccccc1)NC(=O)[C@H](CCCCN)NC(=O)CNC(=O)CNC(=O)[C@H](CCCCN)NC(=O)[C@H](CCCCN)NC(=O)[C@H](CCSC)NC(=O)[C@H](CCSC)NC(=O)[C@H](CCCCN)NC(=O)[C@@H](N)CCCCN)[C@@H](C)O)[C@@H](C)CC)C(=O)N[C@@H](CCCNC(=N)N)C(=O)O [d71M] (H-KKMMKKGGKFGTFAIGMGIR-OH)
[1]
  MBC Value, P. aeruginosa: 2 µg/mL
[2]
  MBC Value, S. aureus: 4 µg/mL
[3]
  MBC Value, MRSA: 4 µg/mL
[4]
  MBC Value, CRPA: 8 µg/mL

## CC[C@H](C)[C@H](NC(=O)CNC(=O)[C@H](CCSC)NC(=O)CNC(=O)[C@@H](NC(=O)[C@H](CCSC)NC(=O)[C@H](Cc1ccccc1)NC(=O)[C@@H](NC(=O)CNC(=O)[C@H](Cc1ccccc1)NC(=O)[C@H](CCCCN)NC(=O)CNC(=O)CNC(=O)[C@H](CCCCN)NC(=O)[C@H](CCCCN)NC(=O)[C@H](CCSC)NC(=O)[C@H](CCSC)NC(=O)[C@H](CCCCN)NC(=O)[C@@H](N)CCCCN)[C@@H](C)O)[C@@H](C)CC)C(=O)N[C@@H](CCCNC(=N)N)C(=O)O [d72A] (H-KKMMKKGGKFGTFMIGMGIR-OH)
[1]
  MBC Value, P. aeruginosa: 2 µg/mL (≈ 0.89 µM)
[2]
  MBC Value, S. aureus: 2 µg/mL (≈ 0.89 µM)
[3]
  MBC Value, MRSA: 2 µg/mL (≈ 0.89 µM)
[4]
  MBC Value, CRPA: 4 µg/mL (≈ 1.78 µM)

## CC[C@H](C)[C@H](NC(=O)CNC(=O)[C@H](CCSC)NC(=O)[C@@H](NC(=O)[C@H](C)NC(=O)[C@H](CCSC)NC(=O)[C@H](Cc1ccccc1)NC(=O)[C@@H](NC(=O)CNC(=O)[C@H](Cc1ccccc1)NC(=O)[C@H](CCCCN)NC(=O)CNC(=O)CNC(=O)[C@H](CCCCN)NC(=O)[C@H](CCCCN)NC(=O)[C@H](CCSC)NC(=O)[C@H](CCSC)NC(=O)[C@H](CCCCN)NC(=O)[C@@H](N)CCCCN)[C@@H](C)O)[C@@H](C)CC)C(=O)N[C@@H](CCCNC(=N)N)C(=O)O [d74G] (H-KKMMKKGGKFGTFMAIMGIR-OH)
[1]
  MBC Value, P. aeruginosa: 4 µg/mL (≈ 1.77 µM)
[2]
  MBC Value, S. aureus: 4 µg/mL (≈ 1.77 µM)
[3]
  MBC Value, MRSA: 4 µg/mL (≈ 1.77 µM)
[4]
  MBC Value, CRPA: 8 µg/mL (≈ 3.54 µM)

## CC[C@H](C)[C@H](NC(=O)[C@H](C)NC(=O)[C@H](CCSC)NC(=O)[C@H](Cc1ccccc1)NC(=O)[C@@H](NC(=O)CNC(=O)[C@H](Cc1ccccc1)NC(=O)[C@H](CCCCN)NC(=O)CNC(=O)CNC(=O)[C@H](CCCCN)NC(=O)[C@H](CCCCN)NC(=O)[C@H](CCSC)NC(=O)[C@H](CCSC)NC(=O)[C@H](CCCCN)NC(=O)[C@@H](N)CCCCN)[C@@H](C)O)C(=O)NCC(=O)N[C@@H](CCSC)C(=O)N[C@H](C(=O)N[C@@H](CCCNC(=N)N)C(=O)O)[C@@H](C)CC [d76G] (H-KKMMKKGGKFGTFMAIGMIR-OH)
[1]
  MBC Value, P. aeruginosa: 4 µg/mL (≈ 1.77 µM)
[2]
  MBC Value, S. aureus: 4 µg/mL (≈ 1.77 µM)
[3]
  MBC Value, MRSA: 4 µg/mL (≈ 1.77 µM)
[4]
  MBC Value, CRPA: 4 µg/mL (≈ 1.77 µM)

## CC[C@H](C)[C@H](NC(=O)[C@H](C)NC(=O)[C@H](CCSC)NC(=O)[C@H](Cc1ccccc1)NC(=O)[C@@H](NC(=O)CNC(=O)[C@H](Cc1ccccc1)NC(=O)[C@H](CCCCN)NC(=O)CNC(=O)CNC(=O)[C@H](CCCCN)NC(=O)[C@H](CCCCN)NC(=O)[C@H](CCSC)NC(=O)[C@H](CCSC)NC(=O)[C@H](CCCCN)NC(=O)[C@@H](N)CCCCN)[C@@H](C)O)C(=O)NCC(=O)N[C@@H](CCSC)C(=O)NCC(=O)N[C@@H](CCCNC(=N)N)C(=O)O [d77I] (H-KKMMKKGGKFGTFMAIGMGR-OH)
[1]
  MBC Value, P. aeruginosa: 4 µg/mL (≈ 1.81 µM)
[2]
  MBC Value, S. aureus: 8 µg/mL (≈ 3.63 µM)
[3]
  MBC Value, MRSA: 4 µg/mL (≈ 1.81 µM)
[4]
  MBC Value, CRPA: 8 µg/mL (≈ 3.63 µM)

## CC[C@H](C)[C@H](NC(=O)CNC(=O)[C@H](CCSC)NC(=O)CNC(=O)[C@@H](NC(=O)[C@H](C)NC(=O)[C@H](CCSC)NC(=O)[C@H](Cc1ccccc1)NC(=O)[C@@H](NC(=O)CNC(=O)[C@H](Cc1ccccc1)NC(=O)[C@H](CCCCN)NC(=O)CNC(=O)CNC(=O)[C@H](CCCCN)NC(=O)[C@H](CCCCN)NC(=O)[C@H](CCSC)NC(=O)[C@H](CCSC)NC(=O)[C@H](CCCCN)NC(=O)[C@@H](N)CCCCN)[C@@H](C)O)[C@@H](C)CC)C(=O)O [d78R] (H-KKMMKKGGKFGTFMAIGMGI-OH)
[1]
  MBC Value, P. aeruginosa: 4 µg/mL (≈ 1.85 µM)
[2]
  MBC Value, S. aureus: 16 µg/mL (≈ 7.4 µM)
[3]
  MBC Value, MRSA: 4 µg/mL (≈ 1.85 µM)
[4]
  MBC Value, CRPA: 16 µg/mL (≈ 7.4 µM)
